{"source": "ChEMBL document CHEMBL5518181", "about": "“Studies of antibacterial activity (in vitro and in vivo) and mode of action for des-acyl tridecaptins (DATs)” (Eur J Med Chem, 2024)", "key": {"Escherichia coli [1]": {"system": "Escherichia coli", "experiment": "Antibacterial activity against Escherichia coli ATCC 25922 harboring hldE knock-out assessed as inhibition of bacterial growth incubated for 18 hrs", "type": "functional", "settings": "read-out: MIC100"}, "Enterobacter cloacae": {"system": "Enterobacter cloacae", "experiment": "Antibacterial activity against Enterobacter cloacae ATCC 23355 assessed as inhibition of bacterial growth incubated for 18 hrs", "type": "functional", "settings": "read-out: MIC100"}, "Klebsiella pneumoniae [2]": {"system": "Klebsiella pneumoniae", "experiment": "Bactericidal activity against Klebsiella pneumoniae ATCC 13883 at 0 to 8 times MIC measured for 24 hrs by time-kill assay", "type": "functional, organism-based"}, "Klebsiella pneumoniae [3]": {"system": "Klebsiella pneumoniae", "experiment": "Antibacterial activity against Klebsiella pneumoniae ATCC 43816 assessed as inhibition of bacterial growth incubated for 18 hrs", "type": "functional", "settings": "read-out: MIC100"}, "Cytochrome P450 1A2": {"target": "T1, Cytochrome P450 1A2 (Homo sapiens, UniProt P05177)", "T1 sequence (P05177 whole entry)": "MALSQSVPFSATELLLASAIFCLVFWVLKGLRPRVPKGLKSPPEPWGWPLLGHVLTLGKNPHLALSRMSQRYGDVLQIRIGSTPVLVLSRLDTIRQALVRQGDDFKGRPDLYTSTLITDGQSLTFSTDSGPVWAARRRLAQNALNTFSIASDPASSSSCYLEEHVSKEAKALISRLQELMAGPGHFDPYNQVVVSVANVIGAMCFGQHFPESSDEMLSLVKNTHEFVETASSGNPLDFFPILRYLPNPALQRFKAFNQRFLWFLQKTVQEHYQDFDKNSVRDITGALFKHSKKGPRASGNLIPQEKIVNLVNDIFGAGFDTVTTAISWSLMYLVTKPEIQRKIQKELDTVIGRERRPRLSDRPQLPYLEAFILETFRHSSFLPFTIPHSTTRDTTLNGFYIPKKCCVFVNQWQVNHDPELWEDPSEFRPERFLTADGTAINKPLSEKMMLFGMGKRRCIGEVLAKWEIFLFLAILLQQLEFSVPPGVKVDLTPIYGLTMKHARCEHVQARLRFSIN", "experiment": "Inhibition of CYP1A2 (unknown origin)", "type": "ADME"}, "Escherichia coli [4]": {"system": "Escherichia coli", "experiment": "Antibacterial activity against Escherichia coli panel (100 strains) assessed as inhibition of bacterial growth", "type": "functional"}, "[5]": {"experiment": "Cytotoxicity against human HepG2 cells incubated for 40 hrs by celltiter-glo luminescent cell viability assay", "type": "toxicity, cell-based"}, "Klebsiella pneumoniae [6]": {"system": "Klebsiella pneumoniae", "experiment": "Antibacterial activity against Klebsiella pneumoniae panel (100 strains) assessed as inhibition of bacterial growth", "type": "functional"}, "[7]": {"experiment": "Chemical stability of compound in benzylamine", "type": "physicochemical"}, "Escherichia coli [8]": {"system": "Escherichia coli", "experiment": "Antibacterial activity against Escherichia coli ATCC 25922 assessed as inhibition of bacterial growth incubated for 18 hrs in presence of 2 mM MgCl2", "type": "functional, organism-based"}, "Escherichia coli [9]": {"system": "Escherichia coli", "experiment": "Antibacterial activity against Escherichia coli ATCC 25922 assessed as inhibition of bacterial growth incubated for 18 hrs in presence of 25 mM bicarbonate", "type": "functional, organism-based"}, "[10]": {"experiment": "Cmax in Swiss mouse liver at 10 mg/kg, iv administered as single bolus dose and measured upto 24 hrs by LC-MS/MS analysis", "type": "ADME, organism-based"}, "Klebsiella pneumoniae [11]": {"system": "Klebsiella pneumoniae", "experiment": "Antibacterial activity against Klebsiella pneumoniae ATCC 43816 infected in cyclophosphamide immunosuppressed Swiss albino mouse respiratory infection model at 30 to 90 mg/kg, iv administered every 2 hrs starting from 1 hr post infection and measured 5 hrs post infection", "type": "functional, organism-based", "settings": "dose 30-90 mg/kg, time 4.0 hrs"}, "[12]": {"experiment": "Chemical stability of compound in glutathione", "type": "physicochemical"}, "Escherichia coli [13]": {"system": "Escherichia coli", "experiment": "Antibacterial activity against colistin resistant Escherichia coli NCTC 13846 harboring mcr-1 gene assessed as inhibition of bacterial growth incubated for 18 hrs", "type": "functional", "settings": "read-out: MIC100"}, "[14]": {"experiment": "Binding affinity to gram negative bacterial lipid II assessed as dissociation constant by ITC analysis", "set-up": "species or system Bacteria"}, "Klebsiella aerogenes": {"system": "Klebsiella aerogenes", "experiment": "Antibacterial activity against Enterobacter aerogenes ATCC 13048 assessed as inhibition of bacterial growth incubated for 18 hrs", "type": "functional", "settings": "read-out: MIC100"}, "Cytochrome P450 3A4 [15]": {"target": "T2, Cytochrome P450 3A4 (Homo sapiens, UniProt P08684)", "T2 sequence (P08684 whole entry)": "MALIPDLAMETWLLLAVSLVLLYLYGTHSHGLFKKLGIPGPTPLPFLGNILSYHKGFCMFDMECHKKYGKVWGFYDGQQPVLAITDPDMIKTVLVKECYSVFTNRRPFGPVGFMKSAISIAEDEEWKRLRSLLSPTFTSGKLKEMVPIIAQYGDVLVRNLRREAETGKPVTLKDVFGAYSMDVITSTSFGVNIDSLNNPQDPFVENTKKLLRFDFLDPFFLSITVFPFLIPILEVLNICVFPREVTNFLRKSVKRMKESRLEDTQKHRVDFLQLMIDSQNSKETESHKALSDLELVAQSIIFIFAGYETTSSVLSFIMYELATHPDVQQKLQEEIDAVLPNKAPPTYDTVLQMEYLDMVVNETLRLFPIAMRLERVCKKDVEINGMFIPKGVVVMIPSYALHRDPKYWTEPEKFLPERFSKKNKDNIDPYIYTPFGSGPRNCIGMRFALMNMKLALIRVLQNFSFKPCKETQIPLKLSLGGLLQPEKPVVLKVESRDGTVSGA", "experiment": "Induction of CYP3A4 (unknown origin)", "type": "ADME"}, "[16]": {"experiment": "Chemical stability of compound at pH 2", "type": "physicochemical", "settings": "buffer"}, "Klebsiella pneumoniae [17]": {"system": "Klebsiella pneumoniae", "experiment": "Antibacterial activity against Klebsiella pneumoniae ATCC 13883 assessed as inhibition of bacterial growth incubated for 18 hrs in presence of 25 mM bicarbonate", "type": "functional, organism-based"}, "Escherichia coli [18]": {"system": "Escherichia coli", "experiment": "Antibacterial activity against Escherichia coli ATCC 35218 infected in Swiss albino mouse septicemia model assessed as log10 reduction in bacterial burden below stasis in spleen at 20 mg/kg, iv administered twice every 2 hrs and measured after 5 hrs", "type": "functional"}, "Klebsiella pneumoniae [19]": {"system": "Klebsiella pneumoniae", "experiment": "Antibacterial activity against wild-type Klebsiella pneumoniae ATCC 13883 assessed as inhibition of bacterial growth incubated for 18 hrs in presence of 50% heat inactivated human serum", "type": "functional", "settings": "read-out: MIC100"}, "Escherichia coli [20]": {"system": "Escherichia coli", "experiment": "Antibacterial activity against Escherichia coli ATCC 25922 assessed as inhibition of bacterial growth incubated for 18 hrs in presence of 150 mM NaCl", "type": "functional, organism-based"}, "[21]": {"experiment": "Half life in Swiss mouse at 10 mg/kg, iv administered as single bolus dose and measured upto 24 hrs by LC-MS/MS analysis", "type": "ADME, organism-based", "settings": "in vivo"}, "[22]": {"experiment": "Volume of distribution at steady state in Swiss mouse at 10 mg/kg, iv administered as single bolus dose and measured upto 24 hrs by LC-MS/MS analysis", "type": "ADME, organism-based", "settings": "in vivo, read-out: Vdss"}, "[23]": {"experiment": "AUClast in Swiss mouse lung at 10 mg/kg, iv administered as single bolus dose and measured upto 24 hrs by LC-MS/MS analysis", "type": "ADME, organism-based"}, "Staphylococcus aureus": {"system": "Staphylococcus aureus", "experiment": "Antibacterial activity against […] assessed as inhibition of bacterial growth incubated for 18 hrs", "type": "functional", "settings": "ATCC 29213, read-out: MIC100"}, "[24]": {"experiment": "Aqueous solubility of compound at pH 4.6", "type": "physicochemical"}, "Proteus mirabilis": {"system": "Proteus mirabilis", "experiment": "Antibacterial activity against Proteus mirabilis ATCC 7002 assessed as inhibition of bacterial growth incubated for 18 hrs", "type": "functional", "settings": "read-out: MIC100"}, "Cytochrome P450 3A4 [25]": {"target": "T2, Cytochrome P450 3A4", "experiment": "Inhibition of CYP3A4 (unknown origin)", "type": "ADME"}, "Klebsiella pneumoniae [26]": {"system": "Klebsiella pneumoniae", "experiment": "Antibacterial activity against Klebsiella pneumoniae ATCC 43816 infected in mouse urinary tract infection model assessed as reduction in bacterial burden in kidney at <10 mg/kg, iv administered every 4 hrs and measured after 26 hrs", "type": "functional, organism-based"}, "Escherichia coli [27]": {"system": "Escherichia coli", "experiment": "Antibacterial activity against Escherichia coli ATCC 25922 infected in cyclophosphamide immunosuppressed mouse thigh infection model at 30 to 90 mg/kg, iv administered every 2 hrs starting from 1 hr post infection and measured 25 hrs post infection", "type": "functional, organism-based", "settings": "dose 30-90 mg/kg, time 24.0 hrs"}, "Klebsiella pneumoniae [28]": {"system": "Klebsiella pneumoniae", "experiment": "Antibacterial activity against Klebsiella pneumoniae ATCC 13883 assessed as inhibition of bacterial growth incubated for 18 hrs in presence of 5 mM KCl", "type": "functional, organism-based"}, "Serratia marcescens": {"system": "Serratia marcescens", "experiment": "Antibacterial activity against intrinsically colistin resistant Serratia marcescens ATCC 13880 assessed as inhibition of bacterial growth incubated for 18 hrs", "type": "functional", "settings": "read-out: MIC100"}, "[29]": {"experiment": "Lipophilicity, logD of compound at pH 7.4", "type": "physicochemical", "settings": "buffer"}, "Escherichia coli [30]": {"system": "Escherichia coli", "experiment": "Antibacterial activity against wild-type Escherichia coli ATCC 25922 assessed as inhibition of bacterial growth incubated for 18 hrs", "type": "functional", "settings": "read-out: MIC100"}, "Escherichia coli [31]": {"system": "Escherichia coli", "experiment": "Antibacterial activity against Escherichia coli ATCC BAA-2469 expressing NDM-1 assessed as inhibition of bacterial growth incubated for 18 hrs", "type": "functional", "settings": "read-out: MIC100"}, "[32]": {"experiment": "Clearance in human microsomes", "type": "ADME, Microsome"}, "Klebsiella pneumoniae [33]": {"system": "Klebsiella pneumoniae", "experiment": "Antibacterial activity against Klebsiella pneumoniae ATCC BAA-2470 expressing NDM-1 assessed as inhibition of bacterial growth incubated for 18 hrs", "type": "functional", "settings": "read-out: MIC100"}}, "note": "Activity calls are given as the source filed them. The calls are words filed in the database; no cut-off is given here."}
{"smiles": "CC[C@H](C)[C@@H](NC(=O)[C@@H](NC(=O)[C@H](CCC(=O)O)NC(=O)[C@H](Cc1ccccc1)NC(=O)[C@@H](CCN)NC(=O)[C@H](CCN)NC(=O)[C@H](CO)NC(=O)[C@@H](Cc1c[nH]c2ccccc12)NC(=O)[C@@H](CO)NC(=O)CNC(=O)[C@@H](CCN)NC(=O)[C@H](NC(=O)[C@H](C)N)C(C)C)C(C)C)C(=O)N[C@@H](C)C(=O)O", "values": [{"measurement": "MIC", "setting": "Escherichia coli [1]", "value": 4, "unit": "mg/L"}, {"measurement": "MIC", "setting": "Enterobacter cloacae", "value": 2, "unit": "mg/L"}, {"measurement": "Activity", "setting": "Klebsiella pneumoniae [2]", "value": "Active"}, {"measurement": "MIC", "setting": "Klebsiella pneumoniae [3]", "value": 8, "unit": "mg/L"}, {"measurement": "inhibition (INH)", "setting": "Cytochrome P450 1A2", "value": "Not Active"}, {"measurement": "MIC50", "setting": "Escherichia coli [4]", "value": 4, "unit": "mg/L"}, {"measurement": "MIC90", "setting": "Escherichia coli [4]", "value": 8, "unit": "mg/L"}, {"measurement": "IC50 at 40 h", "setting": "[5]", "value": "> 170", "unit": "mg/L"}, {"measurement": "MIC50", "setting": "Klebsiella pneumoniae [6]", "value": 8, "unit": "mg/L"}, {"measurement": "MIC90", "setting": "Klebsiella pneumoniae [6]", "value": 32, "unit": "mg/L"}, {"measurement": "Stability", "setting": "[7]", "value": "Stable"}, {"measurement": "Activity", "setting": "Escherichia coli [8]", "value": "Active"}, {"measurement": "Activity", "setting": "Escherichia coli [9]", "value": "Active"}, {"measurement": "Cmax", "setting": "[10]", "value": 5.65, "unit": "µg/mL"}, {"measurement": "Activity", "setting": "Klebsiella pneumoniae [11]", "value": "Active"}, {"measurement": "Stability", "setting": "[12]", "value": "Stable"}, {"measurement": "MIC", "setting": "Escherichia coli [13]", "value": 2, "unit": "mg/L"}, {"measurement": "Kd", "setting": "[14]", "value": 2.6, "unit": "µM"}, {"measurement": "MIC", "setting": "Klebsiella aerogenes", "value": 8, "unit": "mg/L"}, {"measurement": "Activity", "setting": "Cytochrome P450 3A4 [15]", "value": "Not Active"}, {"measurement": "Stability", "setting": "[16]", "value": "Stable"}, {"measurement": "Activity", "setting": "Klebsiella pneumoniae [17]", "value": "Active"}, {"measurement": "log(activity)", "setting": "Escherichia coli [18]", "value": 1}, {"measurement": "MIC", "setting": "Klebsiella pneumoniae [19]", "value": 1, "unit": "mg/L"}, {"measurement": "Activity", "setting": "Escherichia coli [20]", "value": "Active"}, {"measurement": "half-life", "setting": "[21]", "value": 22.8, "unit": "min"}, {"measurement": "Vd", "setting": "[22]", "value": 0.1, "unit": "L/kg"}, {"measurement": "AUC(0-t) at 24 h", "setting": "[23]", "value": 12.1, "unit": "µg·h/mL"}, {"measurement": "MIC", "setting": "Staphylococcus aureus", "value": "> 64", "unit": "mg/L"}, {"measurement": "solubility", "setting": "[24]", "value": "> 1", "unit": "mg/mL"}, {"measurement": "MIC", "setting": "Proteus mirabilis", "value": "> 64", "unit": "mg/L"}, {"measurement": "inhibition (INH)", "setting": "Cytochrome P450 3A4 [25]", "value": "Not Active"}, {"measurement": "Activity", "setting": "Klebsiella pneumoniae [26]", "value": "Active"}, {"measurement": "Activity", "setting": "Escherichia coli [27]", "value": "Active"}, {"measurement": "Activity", "setting": "Klebsiella pneumoniae [28]", "value": "Active"}, {"measurement": "MIC", "setting": "Serratia marcescens", "value": 8, "unit": "mg/L"}, {"measurement": "logD", "setting": "[29]", "value": 1.36}, {"measurement": "MIC", "setting": "Escherichia coli [30]", "value": 4, "unit": "mg/L"}, {"measurement": "MIC", "setting": "Escherichia coli [31]", "value": 8, "unit": "mg/L"}, {"measurement": "microsomal CLint", "setting": "[32]", "value": 23, "unit": "µL/min/mg"}, {"measurement": "MIC", "setting": "Klebsiella pneumoniae [33]", "value": 8, "unit": "mg/L"}]}
